In US7268129B2, “Fluorinated benzothiadiazine compounds” (Les Laboratoires Servier, priority 2005, dated 2007):
Like-named read-outs stand apart in the source and are kept apart here.

Key:
AMPA receptors = assay: Effect of compounds on the ionic current induced by AMPA in Xenopus oocytes; assay type: cell-based; conditions: Xenopus oocytes injected with rat cerebral cortex mRNA, (S)-AMPA 10 μM, voltage-clamp
Procedure: mRNA's are prepared from cerebral cortex of male Wistar rats by the caesium chloride/guanidium thiocyanate method. The poly (A^+) mRNA's are isolated using the PolyATtract mRNA Isolation systems kit (Promega, USA) and injected at a level of 50 ng per oocyte. The oocytes are incubated for 3 to 4 days at 18° C. to permit expression of the receptors and are then stored at 4° C. until used.
Electrophysiological recordings are carried out continuously at ambient temperature in a Plexiglass® chamber using OR2 medium (J. Exp. Zool., 1973, 184, 321-334) by the “voltage-clamp” method using two electrodes, with a third electrode placed in the bath serving as reference.
All the compounds and the AMPA are applied via the perfusion medium. (S)-AMPA is used in a concentration of 10 μM. The ionic current induced by the application of AMPA in the absence and presence of compounds is measured. For each compound studied, the concentration that doubles (EC2×) or quintuples (EC5×) the intensity of the current induced by AMPA alone (5 to 50 nA) is determined.

[1] = test system: Wistar rats aged 3 months; assay: Object recognition in adult Wistar rats aged 3 months; assay type: in vivo, rat; conditions: male Wistar rats aged 3 months; 0.03 to 1 mg/kg by the oral route 60 minutes before each session; 24 hours between sessions
Source text: The object recognition test in the Wistar rat was initially developed by ENNACEUR and DECACOUR (Behav. Brain Res., 1988, 31, 47-59). The test is based on the spontaneous exploratory activity of the animal and has the characteristics of episodic memory in humans. This memory test is sensitive to ageing (SCALL et al., Eur. J. Pharmacol., 1997, 325, 173-180) and to cholinergic dysfunctions (BARTOLINI et al., Pharm. Biochem. Behav. 1996, 53(2), 277-283) and is based on the differences in the exploration of 2 objects of fairly similar shape—one familiar, the other new. Prior to the test, the animals (male Wistar rats aged 3 months: CERJ, France) are habituated to the environment (an enclosure without an object). In the course of a first session, the rats are placed (3 minutes) in the enclosure, in which there are 2 identical objects. The duration of exploration is measured for each object. In the course of the second session (3 minutes), 24 hours later, 1 of the 2 objects is replaced by a new object. The duration of exploration is measured for each object. The assessment criterion is the difference, Delta, expressed in seconds, between the exploration times for the new object and for the familiar object in the course of the second session.

[2] = test system: Wistar rats aged 17 months; assay: Object recognition in Wistar rats aged 17 months; assay type: in vivo, rat; conditions: male Wistar rats aged 17 months; 0.1 mg/kg by the oral route; 1 hour between sessions
Procedure: In old rats there is a deficiency in memory retention in the object recognition test. Prior to the test, the animals (male Wistar rats aged 17 months: CERJ, France) are habituated to the environment (an enclosure without an object). In the course of a first session, the rats are placed (3 minutes) in the enclosure, in which there are 2 identical objects. The duration of exploration is measured for each object. In the course of the second session (3 minutes), 1 hour later, 1 of the 2 objects is replaced by a new object. The duration of exploration is measured for each object. The assessment criterion is the difference, Delta, expressed in seconds, between the exploration times for the new object and for the familiar object in the course of the second session.

O=S1(=O)NCN(CCF)c2ccc(Cl)cc21 [Example 1, 7-Chloro-4-(2-fluoroethyl)-3,4-dihydro-2H-1,2,4-benzothiadiazine 1,1-dioxide]
concentration multiplying AMPA current (EC2× / EC5×) (AMPA receptors; read-out: EC2× (concentration that doubles the intensity of the current induced by AMPA alone)): 6.7 ± 1.4 µM
concentration multiplying AMPA current (EC2× / EC5×) (AMPA receptors; read-out: EC5× (concentration that quintuples the intensity of the current induced by AMPA alone)): 14.5 ± 0.6 µM
memory retention (object recognition, Delta of exploration times) [1]: significantly improves memory retention
age-related deficiency in memory retention (object recognition) [2]: significantly opposes the age-related deficiency in memory retention
